How the values were obtained:
[1] = biological target: ER (endogenous, MCF7 cells) (Homo sapiens (Human), UniProt P03372); test: ER transcription assay (MCF7 cells), ERE-luciferase reporter; assay type: cell-based; details: inflection point of the inhibition of transcription in MCF7 cells; 0.1 nM estradiol, 24 hours; read-out: MCF7 IC50
From the text: ER Transcription Assay (MCF7 Cells)
The ER transcription assay is a reporter assay that is based on the ability of ER to induce transcription from a luciferase reporter gene containing estrogen response elements (EREs) in the promoter/enhancer region. When the reporter gene is transfected in MCF7 cells (containing endogenous ER), transcription is reflected by the level of luciferase expression.
A day before transfection, cells are split into a T75 flask at a cell density of 300,000 cells/mL (10 mL total) and allowed to attach overnight in a humidified CO2 incubator at 37° C.
Approximately 20 ug DNA is mixed in OptiMEM (Invitrogen) to a total volume of 650 μL. Following incubation, the OptiMEM-DNA mixture is added to the OptiMEM-Lipofectin mix and incubated for 15 minutes at 37° C. The DNA-Lipofectin mixture is then added directly to the T75 flask and the flask is returned to the incubator.
Normally, DMSO (used as a vehicle) is included to achieve a final concentration of 0.1% when added to the cells. Transfected cells are trypsinized, resuspended in DMEM/F12/10% charcoal-stripped serum and added to the 96-well plate at 25,000 cells/well in 90 μL of media. The plate is then returned to the incubator for 24 hours.
After incubation with compounds for 24 hours, Firefly and Renilla luciferase activities are measured to determine ER transcriptional activity. Media is removed from 96-well plates by decanting and blotting on paper towels.
One second total read time after a one second delay.
One second total read time after one second delay. If Firefly luciferase signal is high, Renilla assay must be done an hour after the Firefly assay due to incomplete squelching of Firefly signal.
(§1) The column titled MCF7 IC50 reports the inflection point of the inhibition of transcription in MCF7 cells as described above. Percentage ERα remaining reports the remaining ERα protein measured at 10 μM concentration of the ligand as described above. The column ERα IC50 reports the inflection point of the degradation in response to the ligand concentration.

ERα = ERα (Homo sapiens (Human), UniProt P03372); test: ERα degradation (MCF7 cells), in-cell Western; assay type: cell-based; details: for % ERα remaining: remaining ERα protein at 10 μM ligand, relative to DMSO control
Sequence of ERα (P03372 whole entry): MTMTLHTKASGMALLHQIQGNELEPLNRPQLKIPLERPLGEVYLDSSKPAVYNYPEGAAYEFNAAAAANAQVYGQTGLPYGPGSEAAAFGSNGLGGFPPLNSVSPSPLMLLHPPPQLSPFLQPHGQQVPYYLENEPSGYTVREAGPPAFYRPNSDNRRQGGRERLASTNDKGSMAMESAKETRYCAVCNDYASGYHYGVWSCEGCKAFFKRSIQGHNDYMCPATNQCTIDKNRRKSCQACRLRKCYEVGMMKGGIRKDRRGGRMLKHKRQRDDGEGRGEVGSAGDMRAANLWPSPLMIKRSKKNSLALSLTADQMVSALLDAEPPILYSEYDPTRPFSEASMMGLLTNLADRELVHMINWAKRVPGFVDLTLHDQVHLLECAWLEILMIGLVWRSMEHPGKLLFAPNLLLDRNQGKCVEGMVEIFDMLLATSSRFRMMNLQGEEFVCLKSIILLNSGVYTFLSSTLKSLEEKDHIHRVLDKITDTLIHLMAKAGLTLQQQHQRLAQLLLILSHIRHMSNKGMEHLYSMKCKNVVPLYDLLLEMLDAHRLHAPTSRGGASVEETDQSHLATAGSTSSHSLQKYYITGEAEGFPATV
Procedure: ERα Degradation (MCF7 Cells)
as §1

[2] = inflection point of the degradation in response to ligand concentration, MCF7 cells

Sequence of ER (endogenous, MCF7 cells) (P03372 whole entry): as above

| Compound | IC50 [1] | IC50 (ERα; [2]) | % ERα remaining (ERα; MCF7 cells) | DC50 (ERα; inflection point of the degradation in response to ligand concentration, MCF7 cells, read-out: ERα IC50) | ER Percentage remaining (ERα; degradation potential, comparison of linker length between phenyl and -C(O)OH) |
| --- | --- | --- | --- | --- | --- |
| O=C(O)/C=C/c1ccc(Oc2c(-c3cccc(F)c3C(F)(F)F)sc3cc(O)ccc23)cc1 [Example 90, (E)-3-(4-((2-(3-fluoro-2-(trifluoromethyl)phenyl)-6-hydroxybenzo[b]thiophen-3-yl)oxy)phenyl)acrylic acid] | 26 nM | 1.2 nM | 15% | – | – |
| CNC(=O)/C=C/c1ccc(Oc2c(-c3ccc(O)c(F)c3)sc3cc(O)ccc23)cc1 [Example 69, (E)-3-(4-((2-(3-fluoro-4-hydroxyphenyl)-6-hydroxybenzo[b]thiophen-3-yl)oxy)phenyl)-N-methylacrylamide] | 185 nM | 24 nM | 26% | – | – |
| O=C(O)/C=C/c1ccc(Oc2c(-c3ccccc3C3CCC3)sc3cc(O)ccc23)cc1 [Example 89, (E)-3-(4-((2-(2-cyclobutylphenyl)-6-hydroxybenzo[b]thiophen-3-yl)oxy)phenyl)acrylic acid] | 19 nM | 0.5 nM | 18% | – | – |
| CC(=O)/C=C/c1ccc(Oc2c(-c3ccc(F)cc3C(F)(F)F)sc3cc(O)ccc23)cc1 [Example 120, (E)-4-(4-((2-(4-fluoro-2-(trifluoromethyl)phenyl)-6-hydroxybenzo[b]thiophen-3-yl)oxy)phenyl)but-3-en-2-one] | 5.1 nM | – | 70% | – | – |
| CN(C)c1ccccc1-c1sc2cc(O)ccc2c1Oc1ccc(/C=C/C(=O)O)cc1 [Example 125, (E)-3-(4-((2-(2-(dimethylamino)phenyl)-6-hydroxybenzo[b]thiophen-3-yl)oxy)phenyl)acrylic acid] | 124 nM | – | 11% | – | – |
| O=C(/C=C/c1ccc(Oc2c(-c3ccc(F)cc3)sc3cc(O)ccc23)cc1)NCCC(F)(F)F [Example 33, (E)-3-(4-((2-(4-fluorophenyl)-6-hydroxybenzo[b]thiophen-3-yl)oxy)phenyl)-N-(3,3,3-trifluoropropyl)-acrylamide] | – | 10 nM | 32% | – | – |
| O=C(O)/C=C/c1ccc(Oc2c(-c3ccc(C(F)(F)F)cc3C(F)(F)F)sc3cc(O)ccc23)cc1 [Example 11, (E)-3-(4-((2-(2,4-bis(trifluoromethyl)phenyl)-6-hydroxy-benzo[b]thiophen-3-yl)oxy)phenyl)-acrylic acid] | – | 1 nM | 15% | – | – |
| Cc1cc(C)cc(-c2sc3cc(O)ccc3c2Oc2ccc(/C=C/C(=O)O)cc2)c1 [Example 23, (E)-3-(4-((2-(3,5-dimethylphenyl)-6-hydroxybenzo[b]thiophen-3-yl)oxy)phenyl)-acrylic acid] | – | 30 nM | 22% | – | – |
| CNC(=O)/C=C/c1ccc(Oc2c(-c3ccc(O)c(C)c3)sc3cc(O)ccc23)cc1 [Example 68, (E)-3-(4-((6-hydroxy-2-(4-hydroxy-3-methylphenyl)benzo[b]thiophen-3-yl)oxy)phenyl)-N-methylacrylamide] | – | 161 nM | 43% | – | – |
| CCOC(=O)/C=C/c1ccc(Oc2c(-c3ccc(O)cc3)sc3cc(O)ccc23)cc1C [Example 34, (E)-ethyl 3-(4-((6-hydroxy-2-(4-hydroxyphenyl)benzo[b]thiophen-3-yl)oxy)-2-methylphenyl)acrylate] | – | 112 nM | 42% | – | – |
| Cc1cccc(-c2sc3cc(O)ccc3c2Oc2ccc(/C=C/C(=O)O)cc2)c1C [Example 13, (E)-3-(4-((2-(2,3-dimethylphenyl)-6-hydroxybenzo[b]thiophen-3-yl)oxy)phenyl)-acrylic acid] | – | 2 nM | 14% | – | – |
| COC(=O)/C=C/c1ccc(Oc2c(-c3ccc(F)cc3)sc3cc(O)ccc23)cc1 [Example 36, (E)-methyl 3-(4-((2-(4-fluorophenyl)-6-hydroxybenzo[b]thiophen-3-yl)oxy)phenyl)-acrylate] | – | – | 28% | – | – |
| COCc1ccccc1-c1sc2cc(O)ccc2c1Oc1ccc(/C=C/C(=O)O)cc1 [Example 80, (E)-3-(4-((6-hydroxy-2-(2-(methoxymethyl)phenyl)benzo[b]thiophen-3-yl)oxy)phenyl)acrylic acid] | – | – | 14% | – | – |
| Cc1nnc(/C=C/c2ccc(Oc3c(-c4ccc(F)cc4C)sc4cc(O)ccc34)cc2)[nH]1 [Example 49, (E)-2-(4-fluoro-2-methylphenyl)-3-(4-(2-(5-methyl-4H-1,2,4-triazol-3-yl)vinyl)phenoxy)benzo[b]thiophen-6-ol] | – | – | 28% | – | – |
| CNC(=O)/C=C/c1ccc(Oc2c(-c3ccc(C(F)(F)F)cc3)sc3cc(O)ccc23)cc1 [Example 63, (E)-3-(4-((6-hydroxy-2-(4-(trifluoromethyl)-phenyl)benzo[b]thiophen-3-yl)oxy)phenyl)-N-methylacrylamide] | – | 24 nM | 26% | – | – |
| C[C@H](O)c1ccccc1-c1sc2cc(O)ccc2c1Oc1ccc(/C=C/C(=O)O)cc1 [Example 25, (S,E)-3-(4-((6-hydroxy-2-(2-(1-hydroxyethyl)phenyl)benzo[b]thiophen-3-yl)oxy)phenyl)acrylic acid] | – | 6 nM | 22% | – | – |
| Cc1cc(F)ccc1-c1sc2cc(O)ccc2c1Oc1ccc(/C=C/C(=O)NO)cc1 [Example 32, (E)-3-(4-((2-(4-fluoro-2-methylphenyl)-6-hydroxybenzo [b]thiophen-3-yl)oxy)phenyl)-N-hydroxyacrylamide] | – | – | 25% | 17 nM | – |
| Cc1cc(F)ccc1-c1sc2cc(O)ccc2c1Oc1ccc(/C=C/c2n[nH]c(=O)o2)cc1 [Example 48, (E)-5-(4-((2-(4-fluoro-2-methylphenyl)-6-hydroxybenzo [b]thiophen-3-yl)oxy)styryl)-1,3,4-oxadiazol-2(3H)-one] | – | – | 44% | – | – |
| CCOC(=O)/C=C/c1ccc(Oc2c(-c3ccc(O)cc3)sc3cc(O)ccc23)c(C)c1 [Example 35, (E)-ethyl 3-(4-((6-hydroxy-2-(4-hydroxyphenyl)benzo[b]thiophen-3-yl)oxy)-3-methylphenyl)acrylate] | – | – | 33% | – | – |
| COC(=O)/C=C/c1ccc(Oc2c(-c3ccc(O)cc3)sc3c(F)c(O)c(F)cc23)cc1 [Example 37, (E)-methyl 3-(4-((5,7-difluoro-6-hydroxy-2-(4-hydroxyphenyl)-benzo[b]thiophen-3-yl)oxy)phenyl)acrylate] | – | – | 38% | – | – |
| O=C(O)/C=C/c1ccc(Oc2c(-c3ccc(O)cc3)sc3cc(O)ccc23)cc1 [drawing 8] | – | – | – | – | 41 Percentage |
| Cc1cc(C(F)(F)F)ccc1-c1sc2cc(O)ccc2c1Oc1ccc(/C=C/C(=O)O)cc1 [Example 10, (E)-3-(4-((6-hydroxy-2-(2-methyl-4-(trifluoromethyl)phenyl)benzo[b]thiophen-3-yl)oxy)phenyl)acrylic acid] | – | 5 nM | 17% | – | – |
| O=c1nc(/C=C/c2ccc(Oc3c(-c4ccc(O)cc4)sc4cc(O)ccc34)cc2)cc(C(F)(F)F)[nH]1 [Example 50, (E)-4-(4-((6-hydroxy-2-(4-hydroxyphenyl)-benzo[b]thiophen-3-yl)oxy)styryl)-6-(trifluoromethyl) pyrimidin-2(1H)-one] | – | 22 nM | 36% | – | – |
| O=C(O)/C=C/c1ccc(Oc2c(-c3ccccc3[N+](=O)[O-])sc3cc(O)ccc23)cc1 [Example 21, (E)-3-(4-((6-hydroxy-2-(2-nitrophenyl)-benzo[b]thiophen-3-yl)oxy)phenyl)-acrylic acid] | – | 15 nM | 22% | – | – |
| Cc1cc(-c2sc3cc(O)ccc3c2Oc2ccc(/C=C/C(=O)O)cc2)ccc1O [Example 61, (E)-3-(4-((6-hydroxy-2-(4-hydroxy-3-methylphenyl)benzo[b]thiophen-3-yl)oxy)phenyl)acrylic acid] | – | 18 nM | 26% | – | – |
| O=C(O)/C=C/c1ccc(Oc2c(-c3ccc(C(F)(F)F)cc3)sc3cc(O)ccc23)cc1 [Example 3, (E)-3-(4-((6-hydroxy-2-(4-(trifluoromethyl)phenyl)benzo[b]thiophen-3-yl)oxy)phenyl)acrylic acid] | – | 34 nM | 18% | – | – |
